Target: DasR (Streptomyces coelicolor, UniProt Q9K492)
Assay: EMSA binding interference experiment: ability of compounds to interfere with binding of DasR to the nagB and crr promoters
Details: for effect on formation of the complex of DasR with the nagB promoter (EMSA): 10 nM fluorescent probe, 3 μM purified DasR, 500-fold excess of non-specific DNA, 50, 100, 150, and 200 mM compound; for effect on formation of the complex of DasR with the crr promoter region (EMSA): data not shown
Experimental: FIG. 12. […] EMSAs were performed with 10 nM fluorescent probe, 3 μM purified DasR, and 500-fold excess of non-specific DNA.
EMSAs were performed with fluorescent probes (10 nM) with an ALF express sequencer (Filee et al., 2001). Purified DasR (3 μM) and 1000-fold excess of non-specific DNA were used in the reaction mixture. Predicted cis-acting elements were taken from the promoter regions of actII-ORF4 (SCO5085; 5′-[…]-3′ (SEQ ID NO:530)), and redZ (SCO5881; 5′-[…]-3′ (SEQ ID NO:531)). Known cis-acting elements upstream of crr (SCO1390; […]-3′ (SEQ ID NO:532)), and crp (SCO3571; 5′-[…]-3′ (SEQ ID NO:533)) were used as positive and negative controls, respectively. The 16 nt dre sites are underlined.
A pivotal question is what is the effector molecule that modulates DasR? As shown in here, many of the targets for DasR relate to the generation (chitinolytic system), transport (PTS^GlcNAc), and metabolism (glycolysis via fructose 6-P) of N-acetylglucosamine. We therefore looked for the inducer among the intermediate molecules that gravitate around aminosugar metabolism. A binding interference experiment was set up where the ability of compounds to interfere with binding of dasR to the nagB and crr promoters was tested. […] The finding that glucosamine-6-P serves as an effector of DasR is explained by its central position at the metabolic crossroads between (GlcNAc)n extracellular degradation, N-acetylglucosamine transport and intracellular metabolism, lipid and nitrogen metabolism, glycolysis, and peptidoglycan synthesis (FIG. 13).

Chain of DasR (Q9K492 whole entry): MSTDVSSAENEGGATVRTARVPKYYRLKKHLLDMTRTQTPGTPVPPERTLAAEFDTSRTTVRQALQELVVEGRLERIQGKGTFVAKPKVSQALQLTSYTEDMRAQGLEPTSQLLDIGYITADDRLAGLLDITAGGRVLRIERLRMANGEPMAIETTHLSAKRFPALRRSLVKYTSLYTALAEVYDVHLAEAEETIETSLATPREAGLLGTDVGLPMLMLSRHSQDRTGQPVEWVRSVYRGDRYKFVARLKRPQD

Row | Compound | effect on formation of the complex of DasR with the nagB promoter (EMSA) | effect on formation of the complex of DasR with the crr promoter region (EMSA) | effect on formation of the complex of DasR with the nagB promoter (EMSA) (listed as GlcN-6-P)
1 | CC(=O)N[C@H]1C(O)O[C@H](COP(=O)(O)O)[C@@H](O)[C@@H]1O (stereo partly shown) [N-acetylglucosamine-6-P] | it was the only of the compounds tested that prevented the formation of a complex | it was the only of the compounds tested that prevented the formation of a complex | 
2 | CC(=O)SCCNC(=O)CCNC(=O)[C@H](O)C(C)(C)COP(=O)(O)OP(=O)(O)OC[C@H]1O[C@@H](n2cnc3c(N)ncnc32)[C@H](O)[C@@H]1OP(=O)(O)O [acetyl-CoA] | it was the only of the compounds tested that prevented the formation of a complex | it was the only of the compounds tested that prevented the formation of a complex | 
3 | O=C(CO)[C@@H](O)[C@H](O)[C@H](O)COP(=O)(O)O [fructose 6-P] | it was the only of the compounds tested that prevented the formation of a complex | it was the only of the compounds tested that prevented the formation of a complex | 
4 | N[C@H]1C(O)O[C@H](COP(=O)(O)O)[C@@H](O)[C@@H]1O (stereo partly shown) [glucosamine-6-P, glucosamine-6-phosphate] | prevented the formation of a complex | prevented the formation of a complex | release of DasR from the dre site
5 | N[C@@H](CCC(=O)O)C(=O)O [glutamate] | it was the only of the compounds tested that prevented the formation of a complex | it was the only of the compounds tested that prevented the formation of a complex | 
6 | NC(=O)CC[C@H](N)C(=O)O [glutamine] | it was the only of the compounds tested that prevented the formation of a complex | it was the only of the compounds tested that prevented the formation of a complex | 

From patent US9834773B2, “Methods and means for metabolic engineering and improved product formation by micro-organisms” (Universiteit Leiden, priority 2006, dated 2017)
